# Data published in PubChem BioAssay (NCI).
#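 Briefly, cells in 96-well plates were exposed to five compound concentrations for 48 h, and endpoints were estimated by linear interpolation. TGI denotes the concentration required for complete inhibition of growth.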
# What was measured:
# Assay in all cases: NCI anticancer screen, dose series, 48 h
# [1] = system: HCT-15 colon
# [2] = system: SNB-19 CNS
# [3] = system: HS 578T breast
# [4] = system: MDA-MB-231 breast
# [5] = system: UO-31 renal
# [6] = system: SK-MEL-5 melanoma
# [7] = system: HOP-62 NSCLC
# [8] = system: SK-OV-3 ovarian
# [9] = system: NCI-H460 lung
# [10] = system: OVCAR-4 ovarian
# [11] = system: SNB-78 CNS
# [12] = system: 786-0 renal
# [13] = system: UACC-62 melanoma
# [14] = system: SNB-75 CNS
# [15] = system: OVCAR-5 ovarian
# [16] = system: HL-60(TB) leukemia
# [17] = system: M14 melanoma
# [18] = system: OVCAR-3 ovarian
# [19] = system: CAKI-1 renal
# [20] = system: BT-549 breast
# [21] = system: A549 NSCLC
# [22] = system: MDA-MB-435
# [23] = system: A498 renal
# [24] = system: NCI/ADR-RES ovarian
# [25] = system: SF-268 CNS
# [26] = system: ACHN renal
# [27] = system: SN12C renal
# [28] = system: RPMI-8226 leukemia
# [29] = system: SF-539 CNS
# [30] = system: K-562 leukemia
# [31] = system: MOLT-4 leukemia
# [32] = system: DLD-1 colon
# [33] = system: UACC-257 melanoma
# [34] = system: OVCAR-8 ovarian
# [35] = system: PC-3 prostate
# [36] = system: KM20L2 colon
# [37] = system: MALME-3M melanoma
# [38] = system: T-47D breast
# [39] = system: RXF 393 renal
# [40] = system: DU-145 prostate
# [41] = system: SK-MEL-28 melanoma
# [42] = system: MCF7 breast
# [43] = system: NCI-H226 lung
# [44] = system: TK-10 renal
# [45] = system: HCT-116 colon
# [46] = system: SF-295 CNS
# [47] = system: HOP-18 NSCLC
# [48] = system: HOP-92 NSCLC
# [49] = system: EKVX NSCLC
# [50] = system: SW-620 colon
# [51] = system: NCI-H23 lung
# [52] = system: SR leukemia
# [53] = system: DMS 114 small cell lung
# [54] = system: HT29 colon
# [55] = system: M19-MEL melanoma
# [56] = system: COLO 205 colon
# [57] = system: U251 CNS
# [58] = system: DMS 273 small cell lung
# [59] = system: CCRF-CEM leukemia
# [60] = system: NCI-H522 lung
# [61] = system: SK-MEL-2 melanoma
# [62] = system: RXF-631 renal
# [63] = system: KM12 colon
# [64] = system: HCC-2998 colon
# [65] = system: IGROV1 ovarian
# [66] = system: LXFL 529 NSCLC
# [67] = system: LOX IMVI melanoma
# [68] = system: XF 498 CNS
smiles,measurement,setting,value
CCCCCCCCCCCCCCCCCCNC(=O)OCC(CNS(=O)(=O)CCC[n+]1cccc2ccccc21)COC (configuration not stated),TGI,[1],59.2 µM
same,TGI,[2],6.13 µM
same,TGI,[3],5.35 µM
same,TGI,[4],4.05 µM
same,TGI,[5],> 75.1 µM
same,TGI,[6],7.03 µM
same,TGI,[7],38.9 µM
same,TGI,[8],> 24.5 µM
same,TGI,[9],> 100 µM
same,TGI,[10],7.01 µM
same,TGI,[11],7.92 µM
same,TGI,[12],> 43.5 µM
same,TGI,[13],8.21 µM
same,TGI,[14],6.84 µM
same,TGI,[15],6.09 µM
same,TGI,[16],> 100 µM
same,TGI,[17],25.9 µM
same,TGI,[18],48.5 µM
same,TGI,[19],51.3 µM
same,TGI,[20],5.41 µM
same,TGI,[21],25.9 µM
same,TGI,[22],4.94 µM
same,TGI,[23],64.9 µM
same,TGI,[24],34.2 µM
same,TGI,[25],> 20.4 µM
same,TGI,[26],29.9 µM
same,TGI,[27],20.8 µM
same,TGI,[28],> 100 µM
same,TGI,[29],5.63 µM
same,TGI,[30],> 100 µM
same,TGI,[31],> 100 µM
same,TGI,[32],27.5 µM
same,TGI,[33],8.24 µM
same,TGI,[34],> 26.1 µM
same,TGI,[35],4.84 µM
same,TGI,[36],2.15 µM
same,TGI,[37],18.7 µM
same,TGI,[38],> 100 µM
same,TGI,[39],55.8 µM
same,TGI,[40],34.3 µM
same,TGI,[41],> 35.1 µM
same,TGI,[42],3.68 µM
same,TGI,[43],3.84 µM
same,TGI,[44],31.1 µM
same,TGI,[45],5.78 µM
same,TGI,[46],30.3 µM
same,TGI,[47],15.4 µM
same,TGI,[48],4.01 µM
same,TGI,[49],65.7 µM
same,TGI,[50],11.8 µM
same,TGI,[51],5.6 µM
same,TGI,[52],> 100 µM
Cc1c(Cl)cccc1NC(=O)/C(Cl)=C(\Cl)C(=O)O,TGI,[1],30 µM
same,TGI,[2],> 100 µM
same,TGI,[5],32.7 µM
same,TGI,[6],38.2 µM
same,TGI,[7],78.5 µM
same,TGI,[53],36.5 µM
same,TGI,[8],33.3 µM
same,TGI,[54],38 µM
same,TGI,[9],> 100 µM
same,TGI,[10],31.6 µM
same,TGI,[55],30.7 µM
same,TGI,[56],21.6 µM
same,TGI,[11],44.7 µM
same,TGI,[12],33.3 µM
same,TGI,[57],32.7 µM
same,TGI,[58],38.4 µM
same,TGI,[13],26.6 µM
same,TGI,[14],46.7 µM
same,TGI,[15],30.6 µM
same,TGI,[17],30.9 µM
same,TGI,[18],34.1 µM
same,TGI,[19],33.9 µM
same,TGI,[21],38.9 µM
same,TGI,[23],> 100 µM
same,TGI,[59],44.5 µM
same,TGI,[25],40.9 µM
same,TGI,[26],31.3 µM
same,TGI,[60],7.19 µM
same,TGI,[27],31.2 µM
same,TGI,[28],56.5 µM
same,TGI,[29],31.7 µM
same,TGI,[61],49.2 µM
same,TGI,[62],56.7 µM
same,TGI,[63],31.1 µM
same,TGI,[30],> 100 µM
same,TGI,[31],48.2 µM
same,TGI,[32],40.6 µM
same,TGI,[64],35.5 µM
same,TGI,[33],36.7 µM
same,TGI,[36],40.9 µM
same,TGI,[37],32.2 µM
same,TGI,[39],36.9 µM
same,TGI,[41],35.4 µM
same,TGI,[43],51.3 µM
same,TGI,[44],35.2 µM
same,TGI,[65],35.7 µM
same,TGI,[66],46.5 µM
same,TGI,[45],27.4 µM
same,TGI,[46],37.9 µM
same,TGI,[47],31.7 µM
same,TGI,[48],31.6 µM
same,TGI,[67],32.7 µM
same,TGI,[50],39.9 µM
same,TGI,[51],33.8 µM
same,TGI,[52],39.6 µM
O=C(CSc1nc(-c2ccccc2)c(-c2ccccc2)[nH]1)NNC(=S)Nc1ccccc1,TGI,[1],> 100 µM
same,TGI,[68],> 100 µM
same,TGI,[2],> 100 µM
same,TGI,[5],> 100 µM
same,TGI,[6],> 100 µM
same,TGI,[7],> 100 µM
same,TGI,[53],> 100 µM
same,TGI,[8],> 100 µM
same,TGI,[54],> 100 µM
same,TGI,[9],> 100 µM
same,TGI,[10],> 100 µM
same,TGI,[55],> 100 µM
same,TGI,[56],> 100 µM
same,TGI,[11],> 100 µM
same,TGI,[12],> 100 µM
same,TGI,[57],> 100 µM
same,TGI,[58],> 100 µM
same,TGI,[13],> 100 µM
same,TGI,[14],> 100 µM
same,TGI,[15],> 100 µM
same,TGI,[16],> 100 µM
same,TGI,[17],> 100 µM
same,TGI,[18],> 100 µM
same,TGI,[19],> 100 µM
same,TGI,[21],> 100 µM
same,TGI,[23],> 100 µM
same,TGI,[59],> 100 µM
same,TGI,[25],> 100 µM
same,TGI,[26],> 100 µM
same,TGI,[60],> 100 µM
same,TGI,[27],> 100 µM
same,TGI,[28],> 100 µM
same,TGI,[29],> 100 µM
same,TGI,[61],> 100 µM
same,TGI,[63],> 100 µM
same,TGI,[31],> 100 µM
same,TGI,[32],> 100 µM
same,TGI,[64],> 100 µM
same,TGI,[33],> 100 µM
same,TGI,[34],> 100 µM
same,TGI,[36],> 100 µM
same,TGI,[37],> 100 µM
same,TGI,[41],> 100 µM
same,TGI,[43],> 100 µM
same,TGI,[44],> 100 µM
same,TGI,[65],> 100 µM
same,TGI,[66],> 100 µM
same,TGI,[45],> 100 µM
same,TGI,[46],> 100 µM
same,TGI,[48],> 100 µM
same,TGI,[49],> 100 µM
same,TGI,[67],> 100 µM
same,TGI,[50],> 100 µM
same,TGI,[51],> 100 µM
same,TGI,[52],> 100 µM
